Measurements as given in patent publication US20170312260A1 (LAUNX BIOMEDICAL CO., LTD., priority 2014, published 2017).
Like-named read-outs stand apart in the source and are kept apart here.

Tests used:
Assay type in all cases: cell-based
[1] = tested on: H1650 (lung adenocarcinoma); test: WST-1 cell viability analysis, H1650; settings: Homo sapiens
Description: (§1) The cell numbers were counted and reseed as 2×10^6 in cell culture plate/flask. Then, the culture medium were added to a volume of 10 ml, and the cells were cultured for 2-3 days. Then, the cells were suspended for loading into 96-well plates. The number of cells was 3000 and the volume of the culture medium was 100 μl each well.
(§2) Removing the original culture medium from 96-well plate. Then add 100 μl of commercially drug at a concentration of 10 μM per well. After 72 hours, add the diluted WST-1 reagent to the well with 100 μl/well, and the diluted WST-1 reagent was acquired from the dilution of 9:1 medium and WST-1 stock reagent. Finally, the total volume of each well was 200 μl/well. Culture the 96-well plate at 37° C. for 30 to 90 minutes. Detecting and calculate the survival rate of each cancer cells with an ELISA reader at OD450 nm.

[2] = tested on: bladder cancer cell line T24; test: WST-1 cell viability analysis, T24; settings: Homo sapiens
Description: as §1
Removing the original culture medium from 96-well plate. Then add 100 μl of commercially drug at a concentration of 10 μM per well. After 72 hours, add the diluted WST-1 reagent to the well with 100 μl/well, and the diluted WST-1 reagent was acquired from the dilution of 9:1 medium and WST-1 stock reagent. Finally, the total volume of each well was 200 μl/well. […] Detecting and calculate the survival rate of each cancer cells with an ELISA reader at OD450 nm.

[3] = tested on: HeLa (Cervix Adenocarcinoma); test: WST-1 cell viability analysis, HeLa; settings: Homo sapiens
Description: as §1, §2

[4] = tested on: prostate cancer cell line PC-3; test: WST-1 cell viability analysis, PC-3; settings: Homo sapiens
Description: as §1, §2

[5] = tested on: breast cancer cell line MDA-MB-231; test: WST-1 cell viability analysis, MDA-MB-231; settings: Homo sapiens
[6] = tested on: ovarian cancer cell line TOV-21G; test: WST-1 cell viability analysis, TOV-21G; settings: Homo sapiens, TOV21G
Description: as §1, §2

[7] = tested on: HepG2 (hepatocellular carcinoma); test: WST-1 cell viability analysis, HepG2; settings: Homo sapiens, HepG2, 10 μM, 72 hours, read-out: viability (survival rate) of HepG2 cells
[8] = tested on: LoVo(Colorectal Adenocarcinoma); test: WST-1 cell viability analysis, LoVo; settings: Homo sapiens
Description: as §1, §2

[9] = tested on: pancreatic cancer cell line AsPC-1; test: WST-1 cell viability analysis, AsPC-1; settings: Homo sapiens
Description: as §1, §2

[10] = tested on: pancreatic cancer cell line BxPC-3; test: WST-1 cell viability analysis, BxPC-3; settings: Homo sapiens, BXPC-3, 10 μM, 72 hours, read-out: viability (survival rate) of BxPC-3 cells
Description: as §1, §2

[11] = tested on: SAS (Tongue squamous cell carcinoma); test: WST-1 cell viability analysis, SAS
Description: as §1, §2

[12] = tested on: BCC (basal cell carcinoma); test: WST-1 cell viability analysis, BCC; settings: 72 hours, read-out: viability (survival rate) of BCC cells
[13] = WST-1 cell viability analysis, HEK293; settings: human
Description: as §1, §2

[14] = WST-1 cell viability analysis, BEAS-2B; settings: human
Excerpt: (§3) Subculture the different types of cancer cell lines. The cancer cells includes lung cancer, gastric cancer, hepatic cancer, colon cancer, skin cancer, cervical cancer, prostate cancer, bladder cancer, breast cancer, leukemia, pancreatic cancer, ovarian cancer, tongue cancer, osteosarcoma, and renal cancer. The normal cells used in the control group included kidney cell (HEK293) and human bronchial epithelial cell line BEAS-2B (as shown in Table 1).
as §1, §2

normal cells = test: Toxicity to normal cells (overall statement)
Excerpt: as §3, §2

Structure (SMILES): CC1=C(C(=O)OC(C)C)C(c2cccc([N+](=O)[O-])c2)C(C(=O)OC2CN(C(c3ccccc3)c3ccccc3)C2)=C(N)N1 (stereo not drawn) [Azelnidipine]
- viability at 10 µM ([1]; NCI-H1650, 10 μM, 72 hours, run 1-10 min, read-out: viability (survival rate) of H1650 cells): 28.8%
- viability at 10 µM ([1]; NCI-H1650, 10 μM, 72 hours, run 2-20 min, read-out: viability (survival rate) of H1650 cells): 26.5%
- viability at 10 µM ([1]; NCI-H1650, 10 μM, 72 hours, run 3-20 min, read-out: viability (survival rate) of H1650 cells): 40.5%
- viability at 10 µM ([1]; NCI-H1650, 10 μM, 72 hours, run 4-20 min, read-out: viability (survival rate) of H1650 cells): 62.7%
- viability at 10 µM ([1]; NCI-H1650, 72 h, 10 μM, average of 4 tests, read-out: Average viability of H1650 cells): 39.7%
- viability at 10 µM ([2]; T-24, 10 μM, 72 hours, run 1-30 min, read-out: viability (survival rate) of T24 cells): 110%
- viability at 10 µM ([2]; T-24, 10 μM, 72 hours, run 2-20 min, read-out: viability (survival rate) of T24 cells): 75.3%
- viability at 10 µM ([2]; T-24, 10 μM, 72 hours, run 3-20 min, read-out: viability (survival rate) of T24 cells): 30.4%
- viability at 10 µM ([2]; T-24, 10 μM, 72 hours, run 4-20 min, read-out: viability (survival rate) of T24 cells): 102%
- viability at 10 µM ([2]; T-24, 72 h, 10 μM, average of 4 tests, read-out: average viability of T24 cells): 79.5%
- viability at 10 µM ([3]; 72 h, average of 4 tests, read-out: Average viability of HeLa cells): 87%
- viability at 10 µM ([3]; 72 hours, run 0524-10 min, read-out: viability (survival rate) of HeLa cells): 70.4%
- viability at 10 µM ([3]; 72 hours, run 0526-10 min, read-out: viability (survival rate) of HeLa cells): 93.7%
- viability at 10 µM ([3]; 72 hours, run 0529-10 min, read-out: viability (survival rate) of HeLa cells): 81.4%
- viability at 10 µM ([3]; 72 hours, run 0531-10 min, read-out: viability (survival rate) of HeLa cells): 103%
- viability at 10 µM ([4]; PC-3, 10 μM, 72 hours, run PC-3-0524-10 min, read-out: viability (survival rate) of PC-3 cells): 122%
- viability at 10 µM ([4]; PC-3, 10 μM, 72 hours, run PC-3-0526-10 min, read-out: viability (survival rate) of PC-3 cells): 149%
- viability at 10 µM ([4]; PC-3, 10 μM, 72 hours, run PC-3-0529-10 min, read-out: viability (survival rate) of PC-3 cells): 110%
- viability at 10 µM ([4]; PC-3, 10 μM, 72 hours, run PC-3-0531-10 min, read-out: viability (survival rate) of PC-3 cells): 102%
- viability at 10 µM ([4]; PC-3, 72 h, 10 μM, average of 4 tests, read-out: Average viability of PC-3 cells): 121%
- viability at 10 µM ([5]; MDA-MB-231, 10 μM, 72 hours, run 0612-10 min, read-out: viability (survival rate) of MDA-MB-231 cells): 70.3%
- viability at 10 µM ([5]; MDA-MB-231, 10 μM, 72 hours, run 0614-10 min, read-out: viability (survival rate) of MDA-MB-231 cells): 89.7%
- viability at 10 µM ([5]; MDA-MB-231, 72 h, 10 μM, average of the 3 printed tests, read-out: average viability of MDA-MB-231 cells): 86.9%
- viability at 10 µM ([6]; 72 h, average of 4 tests, read-out: average viability of TOV-21G cells): 27.2%
- viability at 10 µM ([6]; 72 hours, run 4-30 min, read-out: viability (survival rate) of TOV-21G cells): 60.1%
- viability at 10 µM ([6]; 72 hours, run 7-3-30 min, read-out: viability (survival rate) of TOV-21G cells): 15.6%
- viability at 10 µM ([6]; 72 hours, run 7-4-30 min, read-out: viability (survival rate) of TOV-21G cells): 13.3%
- viability at 10 µM ([6]; 72 hours, run 7-7-30 min, read-out: viability (survival rate) of TOV-21G cells): 19.6%
- viability at 10 µM ([7]; run 0524-20 min): 110%
- viability at 10 µM ([7]; run 0526-20 min): 87.2%
- viability at 10 µM ([7]; run 0529-20 min): 112%
- viability at 10 µM ([7]; run 0531-20 min): 93.7%
- viability at 10 µM ([8]; 72 h, average of 4 tests, read-out: Average viability of LoVo cells): 59.9%
- viability at 10 µM ([8]; 72 hours, run 0616-10 min, read-out: viability (survival rate) of LoVo cells): 49.6%
- viability at 10 µM ([8]; 72 hours, run 0619-10 min, read-out: viability (survival rate) of LoVo cells): 67.2%
- viability at 10 µM ([8]; 72 hours, run 0621-10 min, read-out: viability (survival rate) of LoVo cells): 62.3%
- viability at 10 µM ([8]; 72 hours, run 0623-10 min, read-out: viability (survival rate) of LoVo cells): 60.3%
- viability at 10 µM ([9]; ASPC1, 10 μM, 72 hours, run 1-4-30 min, read-out: viability (survival rate) of AsPC-1 cells): 58.6%
- viability at 10 µM ([9]; ASPC1, 10 μM, 72 hours, run 1-7-3-30 min, read-out: viability (survival rate) of AsPC-1 cells): 104%
- viability at 10 µM ([9]; ASPC1, 10 μM, 72 hours, run 1-7-4-30 min, read-out: viability (survival rate) of AsPC-1 cells): 46.1%
- viability at 10 µM ([9]; ASPC1, 10 μM, 72 hours, run 1-7-7-30 min, read-out: viability (survival rate) of AsPC-1 cells): 13.7%
- viability at 10 µM ([9]; ASPC1, 72 h, 10 μM, average of 4 tests, read-out: Average viability of AsPC-1 cells): 55.6%
- viability at 10 µM ([10]; run 3-4-30 min): 77.5%
- viability at 10 µM ([10]; run 3-7-3-30 min): 79.9%
- viability at 10 µM ([10]; run 3-7-4-30 min): 51%
- viability at 10 µM ([10]; run 3-7-7-30 min): 50%
- viability at 10 µM ([11]; 72 h, average of 4 tests, read-out: Average viability of SAS cells): 76.8%
- viability at 10 µM ([11]; 72 h, summary (SAS), read-out: Inhibitory effect, tongue cancer): 76.8%
- viability at 10 µM ([11]; 72 hours, run 6-26-10 min, read-out: viability (survival rate) of SAS cells): 69.9%
- viability at 10 µM ([11]; 72 hours, run 6-28-10 min, read-out: viability (survival rate) of SAS cells): 66%
- viability at 10 µM ([11]; 72 hours, run 6-30-10 min, read-out: viability (survival rate) of SAS cells): 66.7%
- viability at 10 µM ([11]; 72 hours, run 7-3-10 min, read-out: viability (survival rate) of SAS cells): 105%
- viability at 10 µM ([12]; run 0602-30 min): 77.7%
- viability at 10 µM ([12]; run 0605-10 min): 127%
- viability at 10 µM ([12]; run 0607-10 min): 95.7%
- viability at 72 h, 10 µM ([13]; HEK293 cells (normal kidney cell line), summary (HEK293), read-out: Inhibitory effect, Normal cell: Kidney cell): 94.2%
- viability at 72 h, 10 µM ([13]; HEK293 normal kidney cells, average of 4 tests, read-out: Average viability of HEK293 cells): 94.2%
- viability at 72 h, 10 µM ([14]; BEAS-2B bronchial epithelial cells, run 0510-10 min, read-out: viability (survival rate) of BEAS-2B cells): 61.3%
- viability at 72 h, 10 µM ([14]; BEAS-2B cells (normal bronchial epithelial cell line), average of 4 tests, read-out: average viability of BEAS-2B cells): 77.5%
- viability at 72 h, 10 µM ([14]; BEAS-2B cells (normal bronchial epithelial cell line), run 0512-10 min, read-out: viability (survival rate) of BEAS-2B cells): 61.8%
- viability at 72 h, 10 µM ([14]; BEAS-2B cells (normal bronchial epithelial cell line), run 0515-10 min, read-out: viability (survival rate) of BEAS-2B cells): 102%
- viability at 72 h, 10 µM ([14]; BEAS-2B cells (normal bronchial epithelial cell line), run 0517-10 min, read-out: viability (survival rate) of BEAS-2B cells): 85.4%
- toxicity to normal cells (in words) (normal cells): no toxicity or had little toxicity
